In PubChem BioAssay AID212 (DTP/NCI, 2004):
Where “and” joins values, the source holds several entries; their conditions need not be identical. Identical values can stand only once. Records with an inconclusive call do not appear.

System: BDF1 mice, colon carcinoma 38 sc, T/C %
Assay: NCI In Vivo Anticancer Drug Screen. Data for tumor model Colon Carcinoma 38 (subcutaneous) in B6D2F1 (BDF1) mice
Conditions: endpoint: median tumor weight (est.), higher = larger tumour
In short: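 T/C readout: treated group (T) measurement over vehicle control group (C) measurement. Endpoint is survival or tumor size in mice bearing a transplanted tumor.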

[1] = dose: 12.5 mg/kg/injection, schedule: Q07DX002 (ip), vehicle: saline
[2] = dose: 25.0 mg/kg/injection, schedule: Q07DX002 (ip), vehicle: saline with Tween-80
[3] = dose: 25.0 mg/kg/injection, schedule: Q07DX002 (ip), vehicle: saline
[4] = dose: 50.0 mg/kg/injection, schedule: Q07DX002 (ip), vehicle: saline with Tween-80
[5] = dose: 100.0 mg/kg/injection, schedule: Q07DX002 (ip), vehicle: saline with Tween-80
[6] = dose: 100.0 mg/kg/injection, schedule: Q07DX002 (ip), vehicle: saline
[7] = dose: 200.0 mg/kg/injection, schedule: Q07DX002 (ip), vehicle: saline with Tween-80
[8] = dose: 200.0 mg/kg/injection, schedule: Q07DX002 (ip), vehicle: saline
[9] = dose: 400.0 mg/kg/injection, schedule: Q07DX002 (ip), vehicle: saline with Tween-80
[10] = dose: 400.0 mg/kg/injection, schedule: Q07DX002 (ip), vehicle: saline
[11] = dose: 800.0 mg/kg/injection, schedule: Q07DX002 (ip), vehicle: saline

| SMILES | T/C [1] | T/C [2] | T/C [3] | T/C [4] | T/C [5] | T/C [6] | T/C [7] | T/C [8] | T/C [9] | T/C [10] | T/C [11] | also measured |
| --- | --- | --- | --- | --- | --- | --- | --- | --- | --- | --- | --- | --- |
| NCCCNCCSP(=O)(O)O | 103 % of control | 83 % of control | 81 % of control | 73 % of control | 91 % of control | 72 % of control | 82 % of control | 76 % of control | 82 % of control | – | – | T/C (dose: 6.25 mg/kg/injection, schedule: Q07DX002 (ip), vehicle: saline): 101 % of control; T/C (dose: 50.0 mg/kg/injection, schedule: Q07DX002 (ip), vehicle: saline): 109 % of control |
| Nc1ccn(C2OC(CO)C(O)C2O)c(=O)n1 (stereo not drawn) | – | – | – | – | – | 69 % of control | – | – | – | 75 % of control and 95 % of control | 35 % of control | T/C (dose: 150.0 mg/kg/injection, schedule: Q07DX002 (ip), vehicle: saline): 74 % of control; T/C (dose: 600.0 mg/kg/injection, schedule: Q07DX002 (ip), vehicle: saline): 29 % of control and 43 % of control; T/C (dose: 1200.0 mg/kg/injection, schedule: Q07DX002 (ip), vehicle: saline): 44 % of control and 55 % of control |
| CCN(CC)C(C)(C)C(=O)/C=C/c1ccccc1 | – | – | – | – | – | – | – | – | – | – | – | T/C (dose: 31.25 mg/kg/injection, schedule: Q07DX002 (ip), vehicle: saline with Tween-80): 68 % of control; T/C (dose: 62.5 mg/kg/injection, schedule: Q07DX002 (ip), vehicle: saline with Tween-80): 39 % of control; T/C (dose: 125.0 mg/kg/injection, schedule: Q07DX002 (ip), vehicle: saline with Tween-80): 78 % of control; T/C (dose: 250.0 mg/kg/injection, schedule: Q07DX002 (ip), vehicle: saline with Tween-80): 34 % of control |
| COc1cc(C)c(C2NC(=O)c3ccccc3N2)cc1C (stereo not drawn) | – | – | – | – | – | – | – | – | – | – | – | T/C (dose: 50.0 mg/kg/injection, schedule: Q07DX002 (ip), vehicle: Klucel (hydroxypropylcellulose) (HPC)): 121 % of control; T/C (dose: 100.0 mg/kg/injection, schedule: Q07DX002 (ip), vehicle: Klucel (hydroxypropylcellulose) (HPC)): 78 % of control; T/C (dose: 400.0 mg/kg/injection, schedule: Q07DX002 (ip), vehicle: Klucel (hydroxypropylcellulose) (HPC)): 117 % of control; T/C (dose: 800.0 mg/kg/injection, schedule: Q07DX002 (ip), vehicle: Klucel (hydroxypropylcellulose) (HPC)): 108 % of control |
| Cc1cn(C2CC(F)C(CO)O2)c(=O)[nH]c1=O (stereo not drawn) | – | – | – | – | – | – | – | 119 % of control | – | 103 % of control | 117 % of control | T/C (dose: 50.0 mg/kg/injection, schedule: Q01DX001 (ip), vehicle: Klucel (hydroxypropylcellulose) (HPC)): 204 % of control; T/C (dose: 100.0 mg/kg/injection, schedule: Q01DX001 (ip), vehicle: Klucel (hydroxypropylcellulose) (HPC)): 193 % of control; T/C (dose: 200.0 mg/kg/injection, schedule: Q01DX001 (ip), vehicle: Klucel (hydroxypropylcellulose) (HPC)): 182 % of control; T/C (dose: 400.0 mg/kg/injection, schedule: Q01DX001 (ip), vehicle: Klucel (hydroxypropylcellulose) (HPC)): 165 % of control; T/C (dose: 1600.0 mg/kg/injection, schedule: Q07DX002 (ip), vehicle: saline): 100 % of control |
| CCCCCCCCCCCCCCCCCCCCCC(=O)Nc1ccn(C2OC(CO)C(O)C2O)c(=O)n1 (stereo not drawn) | 80 % of control | 151 % of control | 119 % of control and 105 % of control | 172 % of control | 82 % of control | 52 % of control and 65 % of control | 92 % of control | 52 % of control | 10 % of control | 29 % of control | – | – |
